Laboratory results taken from patent publication US8841311B2, “Sulphone-substituted quinazoline derivatives as immuno-modulators, their preparation and use as medicaments” (Bayer Intellectual Property GmbH, priority 2008, dated 2014).

Tested on: TLR-induced TNF-α release in human peripheral blood mononuclear cells (PBMC)
Assay: TLR-induced cytokine release in human PBMC (TNF-alpha, ELISA)
Format: cell-based
Conditions: human PBMC stimulated with TLR ligand, 18 hours incubation
Protocol: TLR-Induced Cytokine Release in Human “Peripheral Blood Mononuclear Cells” (PBMC)
PBMCs isolated from human whole blood are stimulated using a TLR ligand.
The cytokine determination is carried out by means of ELISA kits; a proliferation/cell metabolism determination is carried out using Alamar Blue.
For the cell preparation, about 200 ml of blood are treated with an anticoagulant (e.g. citrate Monovettes). Per Leucosep tube, 15 ml of Histopaque (room temperature, RT) are poured in and pressed downwards through the frit employed by brief initial centrifugation (one minute at 1000×g, RT). 20 ml of blood are added to the tubes prepared in this way and centrifuged at 800×g for 15 minutes (RT). After centrifugation, the following layered arrangement results from the top to the bottom: plasma—PBMC Histopaque—filter disc—Histopaque—erythrocytes and granulocytes. The supernatant plasma is aspirated. The PBMC are transferred together with the underlying Histopaque to a new 50 ml tube, the contents of two Leucosep tubes always being added to one 50 ml tube. The 50 ml tubes are then filled to 50 ml with PBS. This cell suspension is centrifuged at 300×g (RT) for 10 minutes. The liquid supernatant is tipped off and the cell pellet is resuspended with a little PBS and subsequently filled to 50 ml with PBS. […] The metabolic activity of the treated cells is determined with the aid of Alamar Blue.

## COc1cc2c(NC(C)C)ncnc2cc1OCc1cccc(S(C)(=O)=O)c1 [Example 2.1, Isopropyl[7-(3-methanesulphonylbenzyloxy)-6-methoxyquinazolin-4-yl]amine]
  IC50: 3000 nM
